Converted amounts (≈) assume the structure as drawn. Read-outs that look alike come from different tables or passages of the source.
How the values were obtained:
B. cenocepacia 140485 = format: cell-based, Burkholderia cenocepacia
B. cenocepacia K56-2 = format: cell-based, Burkholderia cenocepacia; conditions: 18 h
[1] = tested on: B. contaminans FFH-2050MA; format: cell-based, Burkholderia contaminans
B. ubonensis LMG 20358 = format: cell-based, Burkholderia ubonensis
B. multivorans ATCC17616 = format: cell-based, Burkholderia multivorans
B. contaminans FFH-4004 = format: cell-based, Burkholderia contaminans
B. lata BCC6 = format: cell-based, Burkholderia lata
B. dolosa CEP021 = format: cell-based, Burkholderia dolosa
B. contaminans MF16 = format: cell-based, Burkholderia contaminans
[2] = B. cenocepacia K56-2, CAMHB, 37 °C
[3] = Burkholderia cenocepacia, 140485
[4] = Burkholderia contaminans, FFH2050MA
[5] = Burkholderia ubonensis, LMG20358
[6] = Burkholderia multivorans, ATCC17616
[7] = Burkholderia contaminans, FFH4004

| SMILES | MIC (B. cenocepacia 140485; B. cenocepacia 140485) [µg/mL] | MIC (B. cenocepacia K56-2; [2]) [µg/mL] | MIC ([1]; B. contaminans FFH-2050MA) [µg/mL] | MIC (B. ubonensis LMG 20358; B. ubonensis LMG 20358) [µg/mL] | MIC (B. multivorans ATCC17616; B. multivorans ATCC17616) [µg/mL] | MIC (B. contaminans FFH-4004; B. contaminans FFH-4004) [µg/mL] | MIC (B. lata BCC6; B. lata BCC6) [µg/mL] | MIC (B. dolosa CEP021; B. dolosa CEP021) [µg/mL] | MIC (B. contaminans MF16; B. contaminans MF16) [µg/mL] | MIC (B. cenocepacia 140485; [3]) [µg/mL] | MIC (B. cenocepacia K56-2; Burkholderia cenocepacia) [µg/mL] | MIC [1, 4] [µg/mL] | MIC (B. ubonensis LMG 20358; [5]) [µg/mL] | MIC (B. multivorans ATCC17616; [6]) [µg/mL] | MIC (B. contaminans FFH-4004; [7]) [µg/mL] | MIC (B. lata BCC6; Burkholderia lata, BCC6) [µg/mL] | MIC (B. dolosa CEP021; Burkholderia dolosa, CEP021) [µg/mL] | MIC (B. contaminans MF16; Burkholderia contaminans, MF16) [µg/mL] |
| --- | --- | --- | --- | --- | --- | --- | --- | --- | --- | --- | --- | --- | --- | --- | --- | --- | --- | --- |
| C[P+](C)(C)[Au-][S]CC(O)CO (racemic) [WB-19-HL4171] | 16 | 32 | 32 | >128 | 32 | 32 | 32 | 64 | 64 | – | – | – | – | – | – | – | – | – |
| CC(=O)N[C@@H]1[C@@H](O)[C@H](O)[C@@H](CO)O[C@H]1[S][Au-][P+](C)(C)C [WB-19-HB2664] | 128 | > 128 | 64 | 128 | 128 | 128 | 128 | > 128 | 128 | – | – | – | – | – | – | – | – | – |
| CC[P+](CC)(CC)[Au-][S][C@@H]1O[C@H](CO)[C@@H](O)[C@H](O)[C@H]1O [WB-18-FI3683] | 64 | > 128 | 128 | > 128 | 128 | > 128 | 128 | > 128 | 128 | – | – | – | – | – | – | – | – | – |
| CP(C)C.CP(C)C.F[P-](F)(F)(F)(F)F.[Au+] [WB-19-HL4121a] | 32 | 128 | 32 | 128 | 64 | 64 | 32 | 128 | 32 | – | – | – | – | – | – | – | – | – |
| C[P+](C)(C)[Au-][S]CCCO [WB-19-HL4172] | 32 | 32 | 16 | 32 | 32 | 32 | 16 | 32 | 32 | – | – | – | – | – | – | – | – | – |
| CC(C)(O/N=C(\C(=O)N[C@@H]1C(=O)N2C(C(=O)[O-])=C(C[n+]3ccccc3)CS[C@H]12)c1csc(N)n1)C(=O)O [CAZ, ceftazidime, reference compound] | – | – | – | – | – | – | – | – | – | 8 (≈ 14.6 µM) | 32 (≈ 58.5 µM) | 8 (≈ 14.6 µM) | 16 (≈ 29.3 µM) | 16 (≈ 29.3 µM) | 8 (≈ 14.6 µM) | 64 (≈ 117 µM) | 16 (≈ 29.3 µM) | 32 (≈ 58.5 µM) |
| C[P+](C)(C)[Au-][S]CCN [WB-19-HL4181] | 32 | 32 | 32 | 32 | 32 | 32 | 16 | 64 | 64 | – | – | – | – | – | – | – | – | – |
| NC[C@H]1O[C@H](O[C@H]2[C@H](O)[C@@H](O[C@H]3O[C@H](CO)[C@@H](O)[C@H](N)[C@H]3O)[C@H](N)C[C@@H]2N)[C@H](N)C[C@@H]1O [TOB, tobramycin, reference compound] | – | – | – | – | – | – | – | – | – | 128 (≈ 274 µM) | 512 (≈ 1100 µM) | 128 (≈ 274 µM) | 128 (≈ 274 µM) | 64 (≈ 137 µM) | 64 (≈ 137 µM) | 128 (≈ 274 µM) | 128 (≈ 274 µM) | 32 (≈ 68.4 µM) |
| CC(=O)OC[C@H]1O[C@@H]([S][Au-][P+](C)(C)C)[C@H](OC(C)=O)[C@@H](OC(C)=O)[C@@H]1OC(C)=O [WB-19-HG5899] | 128 | > 128 | 64 | 128 | 128 | 128 | 128 | > 128 | 128 | – | – | – | – | – | – | – | – | – |
| CC[P+](CC)(CC)[Au-][S]C1OC(CO)C(O)C(O)C1O (mixture of isomers) [WB-16-EO9899] | 32 | > 128 | 128 | > 128 | 128 | > 128 | 128 | > 128 | 128 | – | – | – | – | – | – | – | – | – |

Reference: article PMC8697972, “New Auranofin Analogs with Antibacterial Properties against Burkholderia Clinical Isolates” (Antibiotics, 2021)
